≈ marks a conversion by molar mass, not a printed value.
Key:
[1] = tested on: Klebsiella pneumoniae ATCC; experiment: Planktonic susceptibility (MIC/MBC), 96-well broth microdilution; type: cell-based; conditions: K. pneumonia; for MIC: planktonic, overnight 37°C in MHB
Method: (§1) All bacterial strains subjected to testing had been stored at −70°C prior to the experiment. The experiment commenced by streaking small amounts of the frozen bacterial samples onto Muller-Hinton agar (MHA) culture medium (BD Bacto, Oxoid, Basingstoke, UK Cat# X296B) and allowing for overnight incubation. Bacteria were re-cultured on MHA plates as required to confirm colony morphology and lack of contamination. Strains tested were P. aeruginosa ATCC 27853, E. coli ATCC 25922, Staphylococcus aureus ATCC 25923, MRSA ATCC 33591, S. epidermidis ATCC 12228, Klebsiella pneumoniae ATCC, P. mirabilis ATCC 35659, and 10 clinical isolates of MRSA from Foothills Hospital, Calgary, Canada. To prepare for susceptibility testing, a protocol modified from Lemire et al was used ([28]). MHB was swab-inoculated from MHA colonies and shake-incubated until turbid. Dilution of the broth with 0.9% saline was performed as necessary to match a 1.0 McFarland standard.
(§2) MIC and MBC assessments were conducted on all bacterial strains using 96-well microtiter plates. To prepare the wells for bacteria, serial dilutions of the antibacterial agents were carried out along the rows of two microtiter plates. The antibacterials were 2-fold diluted with Mueller-Hinton broth (MHB) in each column, reaching a volume of 75 µL. The 1.0 McFarland standard was diluted 15-fold in MHB, and 75 µL of inoculum was added to the wells treated with antibacterials, resulting in a total volume of 150 µL. The microtiter plates were covered and then shake-incubated overnight at 150 rpm and 37°C. MIC was determined based on visible bacterial growth. In cases of antibacterial opacity or ambiguous results, streaking of well cultures on MHA, overnight incubation, and subsequent comparison with controls were performed. MBC was determined by transferring 3 µL of culture from all MIC microtiter plate wells to 147 µL of Mueller-Hinton broth in fresh plates. These plates were shake-incubated overnight at 150 rpm and 37°C, and bacterial growth was visually inspected.

[2] = tested on: Staphylococcus aureus ATCC 25923; experiment: as above; type: cell-based; conditions: Staphylococcus aureus, ATCC25923, S. aureus; for MIC: planktonic, overnight 37°C in MHB
Method: as §1, §2

[3] = tested on: P. mirabilis ATCC 35659; experiment: as above; type: cell-based; conditions: Proteus mirabilis; for MBC: ATCC35659; for MIC: ATCC35659, planktonic, overnight 37°C in MHB
Method: as §1, §2

[4] = tested on: S. epidermidis ATCC 12228; experiment: as above; type: cell-based, Staphylococcus epidermidis; conditions: Staphylococcus epidermidis
Method: as §1, §2

[5] = tested on: 10 clinical isolates of MRSA from Foothills Hospital, Calgary; experiment: Planktonic susceptibility (MIC/MBC) of MRSA clinical isolates; type: cell-based, methicillin-resistant S. aureus; conditions: Staphylococcus aureus
Method: as §1
as §2, with “In cases of antibacterial opacity or ambiguous results, streaking of well cultures on MHA, overnight incubation, and subsequent comparison with controls were performed.” left out

[6] = tested on: MRSA ATCC 33591; experiment: Planktonic susceptibility (MIC/MBC), 96-well broth microdilution; type: cell-based, methicillin-resistant S. aureus; conditions: Staphylococcus aureus, MRSA reference strain; for MIC: planktonic, overnight 37°C in MHB
Method: as §1
as §2, with “In cases of antibacterial opacity or ambiguous results, streaking of well cultures on MHA, overnight incubation, and subsequent comparison with controls were performed.” left out

Row | Compound | MBC [1] | MIC [1] | MBC [2] | MIC [2] | MBC [3] | MIC [3] | MBC [6] | MIC [6] | further results
1 | O=C(Nc1ccc(Cl)cc1)Nc1cc(S(F)(F)(F)(F)F)ccc1Cl [EBP-40, 1-(2-Chloro-5-(pentafluoro-λ^6-sulfanyl)phenyl)-3-(4-chlorophenyl)urea] | > 5000 µM | > 5000 µM | 1200 µM (≈ 489 µg/mL) | 480 µM (≈ 195 µg/mL) | 625 µM (≈ 254 µg/mL) | 625 µM (≈ 254 µg/mL) | 610 µM (≈ 248 µg/mL) | 150 µM (≈ 61.1 µg/mL) | MBC ([4]; ATCC12228): 900 µM (≈ 366 µg/mL); MIC ([4]; ATCC12228, planktonic, overnight 37°C in MHB): 1200 µM (≈ 489 µg/mL); MBC ([5]; MRSA #1 clinical isolate): 1200 µM (≈ 489 µg/mL); MIC ([5]; MRSA #1 clinical isolate): 20 µM (≈ 8.14 µg/mL); MBC ([5]; MRSA #2 clinical isolate): 40 µM (≈ 16.3 µg/mL); MIC ([5]; MRSA #2 clinical isolate): 20 µM (≈ 8.14 µg/mL); MBC ([5]; MRSA #3 clinical isolate): 160 µM (≈ 65.2 µg/mL); MIC ([5]; MRSA #3 clinical isolate): 80 µM (≈ 32.6 µg/mL); MBC ([5]; MRSA #4 clinical isolate): 160 µM (≈ 65.2 µg/mL); MIC ([5]; MRSA #4 clinical isolate): 40 µM (≈ 16.3 µg/mL); MBC ([5]; MRSA #5 clinical isolate): 40 µM (≈ 16.3 µg/mL); MIC ([5]; MRSA #5 clinical isolate): 20 µM (≈ 8.14 µg/mL); MBC ([5]; MRSA #6 clinical isolate): 160 µM (≈ 65.2 µg/mL); MIC ([5]; MRSA #6 clinical isolate): 40 µM (≈ 16.3 µg/mL); MBC ([5]; MRSA #7 clinical isolate): 80 µM (≈ 32.6 µg/mL); MIC ([5]; MRSA #7 clinical isolate): 40 µM (≈ 16.3 µg/mL); MBC ([5]; MRSA #8 clinical isolate): 80 µM (≈ 32.6 µg/mL); MIC ([5]; MRSA #8 clinical isolate): 40 µM (≈ 16.3 µg/mL); MBC ([5]; MRSA #9 clinical isolate): 80 µM (≈ 32.6 µg/mL); MIC ([5]; MRSA #9 clinical isolate): 20 µM (≈ 8.14 µg/mL)
2 | O=C(Nc1ccc(S(F)(F)(F)(F)F)cc1)Nc1cccc(S(F)(F)(F)(F)F)c1 [EBP-55, 1-(3-(pentafluoro-λ^6-sulfanyl)phenyl)-3-(4-(pentafluoro-λ^6-sulfanyl)phenyl)urea] | > 5000 µM | > 5000 µM | 78000 µM (≈ 36200 µg/mL) | 19 µM (≈ 8.82 µg/mL) | > 5000 µM | > 5000 µM | 150 µM (≈ 69.7 µg/mL) | 4.8 µM (≈ 2.23 µg/mL) | 
3 | O=C(Nc1ccc(Cl)cc1)Nc1ccc(Cl)c(S(F)(F)(F)(F)F)c1 [EBP-41, 1-(4-chloro-3-(pentafluoro-λ^6-sulfanyl)phenyl)-3-(4-chlorophenyl)urea] | > 5000 µM | > 5000 µM | 1200 µM (≈ 489 µg/mL) | 38 µM (≈ 15.5 µg/mL) | > 5000 µM | > 5000 µM | 1200 µM (≈ 489 µg/mL) | 9.5 µM (≈ 3.87 µg/mL) | 
4 | O=C(Nc1ccc(Cl)c(Cl)c1)Nc1ccc2nnsc2c1 [B] | > 5000 µM | > 5000 µM |  | 9800 µM (≈ 3320 µg/mL) | > 5000 µM | > 5000 µM |  | 4900 µM (≈ 1660 µg/mL) | 
5 | O=C(Nc1ccc(Cl)cc1)Nc1cccc(S(F)(F)(F)(F)F)c1Cl [EBP-58, 1-(2-Chloro-3-(pentafluoro-λ^6-sulfanyl)phenyl)-3-(4-chlorophenyl)urea] | > 5000 µM | > 5000 µM |  |  | > 5000 µM | > 5000 µM |  | 20000 µM (≈ 8140 µg/mL) | 
6 | O=C(Nc1ccc(S(F)(F)(F)(F)F)cc1)Nc1ccc(S(F)(F)(F)(F)F)cc1 [EBP-33, 1,3-bis(4-pentafluoro-λ^6-sulfanyl)urea] | > 5000 µM | > 5000 µM | 20000 µM (≈ 9290 µg/mL) | 19 µM (≈ 8.82 µg/mL) | > 5000 µM | > 5000 µM | 2400 µM (≈ 1110 µg/mL) | 4.8 µM (≈ 2.23 µg/mL) | 
7 | O=C(Nc1ccc2nnsc2c1)Nc1cccc(S(F)(F)(F)(F)F)c1Cl [EBP-24, 3-(1,2,3-benzothiadiazol-6-yl)-1-(2-chloro-3-pentafluoro-λ^6-sulfanyl)urea] | > 5000 µM | > 5000 µM | 78000 µM (≈ 33600 µg/mL) | 76 µM (≈ 32.7 µg/mL) | > 5000 µM | > 5000 µM |  | 150 µM (≈ 64.6 µg/mL) | 
8 | O=C(Nc1cccc(S(F)(F)(F)(F)F)c1)Nc1cccc(S(F)(F)(F)(F)F)c1 [EBP-53, 1,3-bis(3-(Pentafluoro-λ^6-sulfanyl)phenyl) urea] | > 5000 µM | > 5000 µM |  | 1200 µM (≈ 557 µg/mL) | > 5000 µM | > 5000 µM |  | 1200 µM (≈ 557 µg/mL) | 
9 | O=C(Nc1ccc(Cl)c(S(F)(F)(F)(F)F)c1)Nc1ccc(Cl)c(S(F)(F)(F)(F)F)c1 [EBP-56, 1,3-bis(4-Chloro-3-(pentafluoro-λ^6-sulfanyl)phenyl) urea] | > 5000 µM | > 5000 µM | 78000 µM (≈ 41600 µg/mL) | 4900 µM (≈ 2610 µg/mL) | > 5000 µM | > 5000 µM | 610 µM (≈ 325 µg/mL) | 300 µM (≈ 160 µg/mL) | 
10 | O=C(Nc1ccc(Cl)c(C(F)(F)F)c1)Nc1ccc2nnsc2c1 [A] | > 5000 µM | > 5000 µM |  |  | > 5000 µM | > 5000 µM |  |  | 
11 | O=C(Nc1cccc(S(F)(F)(F)(F)F)c1)Nc1ccc2nnsc2c1 [EPB-22, 3-(1,2,3-benzothiadiazol-6-yl)-1-(3-pentafluoro-λ^6-sulfanyl)urea] | > 5000 µM | > 5000 µM | 20000 µM (≈ 7930 µg/mL) | 610 µM (≈ 242 µg/mL) | > 5000 µM | > 5000 µM | 4900 µM (≈ 1940 µg/mL) | 610 µM (≈ 242 µg/mL) | 
12 | O=C(Nc1ccc(S(F)(F)(F)(F)F)cc1)Nc1ccc2nnsc2c1 [EPB-21, 3-(1,2,3-benzothiadiazol-6-yl)-1-(4-pentafluoro-λ^6-sulfanyl)urea] | > 5000 µM | > 5000 µM |  |  | > 5000 µM | > 5000 µM |  |  | 
13 | O=C(Nc1ccc(Cl)c(S(F)(F)(F)(F)F)c1)Nc1ccc2nnsc2c1 [EBP-25, 3-(1,2,3-benzothiadiazol-6-yl)-1-(4-chloro-3-pentafluoro-λ^6-sulfanyl)urea] | > 5000 µM | > 5000 µM | 78000 µM (≈ 33600 µg/mL) | 9800 µM (≈ 4220 µg/mL) | > 5000 µM | > 5000 µM |  |  | 
14 | O=C(Nc1cc(S(F)(F)(F)(F)F)ccc1Cl)Nc1cc(S(F)(F)(F)(F)F)ccc1Cl [EBP-36, 1,3-bis(2-chloro-5-pentafluoro-λ^6-sulfanyl)urea] | > 5000 µM | > 5000 µM | 78000 µM (≈ 41600 µg/mL) | 76 µM (≈ 40.5 µg/mL) | > 5000 µM | > 5000 µM | 9800 µM (≈ 5230 µg/mL) | 610 µM (≈ 325 µg/mL) | 
15 | O=C(Nc1ccc2nnsc2c1)Nc1cc(S(F)(F)(F)(F)F)ccc1Cl [EPB-23, 3-(1,2,3-benzothiadiazol-6-yl)-1-(2-chloro-5-pentafluoro-λ^6-sulfanyl)urea] | > 5000 µM | > 5000 µM | 20000 µM (≈ 8620 µg/mL) | 2400 µM (≈ 1030 µg/mL) | > 5000 µM | > 5000 µM | 39000 µM (≈ 16800 µg/mL) | 4900 µM (≈ 2110 µg/mL) | 

— paper PMC11237694, “Novel pentafluorosulfanyl-containing triclocarban analogs selectively kill Gram-positive bacteria” (Microbiology Spectrum, 2024)
